Results on two molecules are retold here after patent US8476012B2, “Physiogenomic method for predicting metabolic and cardiovascular side effects of thiazolidinediones” (Genomas, Inc., priority 2008, dated 2013).

The conditions of series [1]: suggested by various meta analyses; since disputed; cited from earlier work.
On the set-up of series [2]: species or system human. The note with it: in vivo. From the text:
(§1) Outpatients with type 2 diabetes treated between February and June 2007 with rosiglitazone ([…]) or pioglitazone (n=33) for ≧4 months at the Joslin Diabetes Center affiliate of The Hospital of Central Connecticut (THOCC) in New Britain, Conn. were recruited as volunteer subjects. There were no exclusionary criteria. Each subject provided informed written consent as approved by the THOCC Institutional Review Board.
Clinical Assessment. Patient characteristics included age, height, weight, body mass index, and the presence/absence of edema as recorded by a physician.
Physiogenomic Analysis. Patients treated with rosiglitazone or pioglitazone were recruited from THOCC clinics and provided informed written consent as approved by the THOCC Institutional Review Board. For physiogenomic associations to HbA1c, body mass index and edema, genotype data were obtained on 88 patients, 55 on rosiglitazone and 33 on pioglitazone regimens. A standardized set of phenotypes were collected from the most recent medical records for each patient. Valid genotype data were obtained on the 88 patients. […]
(§2) HbA1c was selected as an indicator for efficacy, and body mass index and edema as indicators of undesired side effect. […] The phenotypes were analyzed for covariate dependence on age, gender, ethnicity, and treatment.

A short description of series [3]: HbA1c level (efficacy indicator) in type 2 diabetes outpatients on thiazolidinedione therapy. The note with it: average by covariate; type 2 diabetes outpatients treated ≧4 months; from most recent medical records. Type of series: in vivo, human. As to the method: as §1
Hemoglobin A1c: HbA1c levels were measured via ion exchange using the HPLC Variant II (BioRad Laboratories, Hercules Calif.).
Physiogenomic Analysis. Patients treated with rosiglitazone or pioglitazone were recruited from THOCC clinics and provided informed written consent as approved by the THOCC Institutional Review Board. For physiogenomic associations to HbA1c, body mass index and edema, genotype data were obtained on 88 patients, 55 on rosiglitazone and 33 on pioglitazone regimens. A standardized set of phenotypes were collected from the most recent medical records for each patient. Valid genotype data were obtained on the 88 patients. Extensive information on co-medications and disease history were also collected to control for environmental effects.
as §2

Regarding `CN(CCOc1ccc(CC2SC(=O)NC2=O)cc1)c1ccccn1` (stereo not drawn) [rosiglitazone], the “risk for myocardial infarction (MI)” value in series [1] is recorded as “may increase the risk for myocardial infarction”. In series [2], the BMI came to 33.7. In series [3], the HbA1c stood at 7.4%.
With `CCc1ccc(CCOc2ccc(CC3SC(=O)NC3=O)cc2)nc1` (stereo not drawn) [pioglitazone], in series [1], the “risk for myocardial infarction (MI)” value is reported as “does not”. Also, the BMI in series [2] is reported as 33.4. In addition, the HbA1c in series [3] came out at 7.4%.
